In ChEMBL document CHEMBL1909046, “DrugMatrix in vitro pharmacology data”:
*1 amine or outer side, *2 acyl side, *3 side chain or, on linkers, in order; H or OH if unused. Where a SMILES comes first, the peptide text is derived from it. Bridges are numbered along the chain shown (N, C = ends). Roman numbers before positions name the chains, in order. [ ]: non-standard residue; d: D form. Actinocin(1to9) = Cc1c2oc3c(C)ccc(C(=O)[*:2])c3nc-2c(C(=O)[*:1])c(N)c1=O; NMeV = CN[C@H](C(=O)O)C(C)C; Sar = CNCC(=O)O

Legend:
[1] = DRUGMATRIX: Imidazoline I2, Central radioligand binding (ligand: [3H] Idazoxan); assay type: cell membranes, Rattus norvegicus, Wistar, Cerebral cortex, Membrane; settings: Not Active = under 50% inhibition at 10 µM
[2] = target: 5-hydroxytryptamine receptor 1B (Rattus norvegicus, UniProt P28564); assay type: cell membranes, Wistar, Cerebral cortex, Membrane; note: in other assays of this panel Not Active means under 50% inhibition at 10 µM
5-hydroxytryptamine receptor 1B, sequence (P28564 whole entry): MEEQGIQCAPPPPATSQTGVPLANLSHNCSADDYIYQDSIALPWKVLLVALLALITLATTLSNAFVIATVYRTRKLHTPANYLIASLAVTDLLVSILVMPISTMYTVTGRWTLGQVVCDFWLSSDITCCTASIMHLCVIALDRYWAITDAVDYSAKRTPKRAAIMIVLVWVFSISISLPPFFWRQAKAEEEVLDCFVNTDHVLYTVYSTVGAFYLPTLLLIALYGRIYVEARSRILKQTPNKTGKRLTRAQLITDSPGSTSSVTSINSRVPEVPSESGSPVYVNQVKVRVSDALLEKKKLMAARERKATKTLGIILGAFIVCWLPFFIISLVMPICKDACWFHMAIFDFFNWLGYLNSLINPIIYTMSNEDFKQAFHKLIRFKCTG

[3] = target: Cytochrome P450 2E1 (Homo sapiens, UniProt P05181); settings: bti-tn-5b1-4; note: in other assays of this panel Not Active means under 50% inhibition at 10 µM
Cytochrome P450 2E1, sequence (P05181 whole entry): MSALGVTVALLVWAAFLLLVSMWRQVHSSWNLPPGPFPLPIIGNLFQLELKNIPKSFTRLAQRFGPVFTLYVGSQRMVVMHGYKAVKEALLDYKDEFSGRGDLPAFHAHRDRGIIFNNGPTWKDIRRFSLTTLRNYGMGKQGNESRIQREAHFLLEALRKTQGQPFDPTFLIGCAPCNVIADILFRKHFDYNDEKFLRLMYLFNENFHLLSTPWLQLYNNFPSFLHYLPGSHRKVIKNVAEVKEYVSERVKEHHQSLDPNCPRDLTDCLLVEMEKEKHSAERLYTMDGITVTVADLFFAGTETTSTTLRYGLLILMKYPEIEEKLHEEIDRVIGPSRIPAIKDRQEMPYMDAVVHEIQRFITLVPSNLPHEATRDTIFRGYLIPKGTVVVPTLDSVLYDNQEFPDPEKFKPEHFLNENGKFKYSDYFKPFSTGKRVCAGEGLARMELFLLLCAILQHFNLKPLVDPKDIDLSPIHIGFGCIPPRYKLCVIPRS

[4] = target: T1, Neuropeptide Y receptor type 1 (Homo sapiens, UniProt P25929); assay type: cell membranes, Membrane; settings: sk-n-mc; note: in other assays of this panel Not Active means under 50% inhibition at 10 µM
T1 sequence (P25929 whole entry): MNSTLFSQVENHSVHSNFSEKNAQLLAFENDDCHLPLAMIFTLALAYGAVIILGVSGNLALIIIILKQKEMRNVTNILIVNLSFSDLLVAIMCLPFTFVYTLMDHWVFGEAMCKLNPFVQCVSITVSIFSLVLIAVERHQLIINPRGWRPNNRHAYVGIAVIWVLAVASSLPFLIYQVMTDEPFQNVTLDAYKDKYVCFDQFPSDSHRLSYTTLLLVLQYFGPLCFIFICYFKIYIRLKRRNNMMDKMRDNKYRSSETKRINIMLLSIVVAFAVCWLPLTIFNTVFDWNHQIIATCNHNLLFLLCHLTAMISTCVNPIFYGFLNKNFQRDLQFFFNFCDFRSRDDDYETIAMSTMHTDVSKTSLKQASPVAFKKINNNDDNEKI

[5] = target: Sigma non-opioid intracellular receptor 1 (Homo sapiens, UniProt Q99720); assay: DRUGMATRIX: Sigma1 radioligand binding (ligand: [3H] Haloperidol); assay type: cell membranes, Jurkat, Membrane; settings: Not Active = under 50% inhibition at 10 µM
Sigma non-opioid intracellular receptor 1, sequence (Q99720 whole entry): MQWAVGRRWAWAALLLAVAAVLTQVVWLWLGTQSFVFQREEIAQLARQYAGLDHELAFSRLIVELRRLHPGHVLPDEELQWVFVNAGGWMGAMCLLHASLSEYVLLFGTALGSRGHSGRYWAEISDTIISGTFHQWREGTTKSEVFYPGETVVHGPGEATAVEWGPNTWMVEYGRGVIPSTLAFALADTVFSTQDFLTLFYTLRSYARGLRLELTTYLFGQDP

[6] = target: Nitric oxide synthase 1 (Rattus norvegicus, UniProt P29476); assay type: tissue-based, Cerebellum; note: in other assays of this panel Not Active means under 50% inhibition at 10 µM
Nitric oxide synthase 1, sequence (P29476 whole entry): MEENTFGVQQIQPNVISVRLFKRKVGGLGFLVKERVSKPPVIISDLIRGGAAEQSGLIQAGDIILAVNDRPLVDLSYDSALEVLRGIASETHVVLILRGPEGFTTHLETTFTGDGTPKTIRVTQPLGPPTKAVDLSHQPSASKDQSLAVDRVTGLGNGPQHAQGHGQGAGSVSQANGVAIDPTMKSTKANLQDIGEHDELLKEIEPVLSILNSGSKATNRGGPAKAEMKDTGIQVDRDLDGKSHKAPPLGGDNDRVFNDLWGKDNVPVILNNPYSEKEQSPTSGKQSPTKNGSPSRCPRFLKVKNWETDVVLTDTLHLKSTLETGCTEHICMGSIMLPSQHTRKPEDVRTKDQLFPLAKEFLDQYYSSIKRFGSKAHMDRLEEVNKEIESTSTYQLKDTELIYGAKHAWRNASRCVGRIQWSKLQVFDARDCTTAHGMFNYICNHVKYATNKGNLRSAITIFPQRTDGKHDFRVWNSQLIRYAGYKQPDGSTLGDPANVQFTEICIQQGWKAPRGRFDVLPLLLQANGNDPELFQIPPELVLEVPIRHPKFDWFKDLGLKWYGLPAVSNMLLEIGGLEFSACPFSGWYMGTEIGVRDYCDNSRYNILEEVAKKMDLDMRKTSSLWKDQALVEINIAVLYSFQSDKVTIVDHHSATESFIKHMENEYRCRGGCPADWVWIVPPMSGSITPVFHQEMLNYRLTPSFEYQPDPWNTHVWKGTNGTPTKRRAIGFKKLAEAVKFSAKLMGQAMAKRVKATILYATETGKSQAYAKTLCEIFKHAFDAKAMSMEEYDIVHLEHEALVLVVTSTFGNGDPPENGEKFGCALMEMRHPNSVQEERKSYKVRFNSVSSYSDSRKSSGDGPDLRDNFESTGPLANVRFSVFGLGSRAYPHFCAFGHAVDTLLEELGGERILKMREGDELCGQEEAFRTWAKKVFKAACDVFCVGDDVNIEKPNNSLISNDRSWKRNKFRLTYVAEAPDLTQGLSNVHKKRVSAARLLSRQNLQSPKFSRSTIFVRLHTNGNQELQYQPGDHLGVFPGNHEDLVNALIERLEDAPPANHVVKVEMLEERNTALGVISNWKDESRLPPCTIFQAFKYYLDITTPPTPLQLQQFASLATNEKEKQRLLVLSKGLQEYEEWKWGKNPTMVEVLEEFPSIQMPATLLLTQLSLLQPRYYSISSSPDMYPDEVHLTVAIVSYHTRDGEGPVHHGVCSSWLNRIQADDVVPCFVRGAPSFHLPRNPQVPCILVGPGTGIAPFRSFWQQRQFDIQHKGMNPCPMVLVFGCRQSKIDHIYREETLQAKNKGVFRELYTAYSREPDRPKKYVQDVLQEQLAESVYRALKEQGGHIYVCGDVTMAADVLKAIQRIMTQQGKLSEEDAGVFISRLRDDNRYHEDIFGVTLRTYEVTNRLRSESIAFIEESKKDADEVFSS

Compound	IC50 ([1]; read-out: IC50) [µM]	Ki ([1]; read-out: Ki) [µM]	IC50 [2]	IC50 [3]	Ki [3]	IC50 [4]	IC50 ([5]; jurkat)	IC50 [6]	IC50 [1]	Ki [1]	IC50 ([5]; read-out: IC50) [µM]	Ki ([5]; read-out: Ki) [µM]	Ki [2]	Ki [4]	Ki ([5]; jurkat)	Ki [6]
Cc1ccc(/N=C/N(C)/C=N/c2ccc(C)cc2C)c(C)c1 [AMITRAZ]	0.0477	0.0318	Not Active	Not Active	Not Active	Not Active	Not Active	Not Active								
C[C@H](CS)C(=O)N1CCC[C@H]1C(=O)O [CAPTOPRIL]			Not Active	Not Active	Not Active	Not Active	Not Active	Not Active	Not Active	Not Active						
Clc1cccc(Cl)c1NC1=NCCN1 [CLONIDINE]	0.064	0.043	Not Active	Not Active	Not Active	Not Active	Not Active	Not Active								
CCCCN1CCCC[C@H]1C(=O)Nc1c(C)cccc1C [LEVOBUPIVACAINE]			Not Active	Not Active	Not Active	Not Active	Not Active	Not Active	Not Active	Not Active						
OC(Cn1cncn1)(Cn1cncn1)c1ccc(F)cc1F [FLUCONAZOLE]			Not Active	Not Active	Not Active	Not Active	Not Active	Not Active	Not Active	Not Active						
CCCC1O[C@@H]2C[C@H]3[C@@H]4CCC5=CC(=O)C=C[C@]5(C)[C@H]4[C@@H](O)C[C@]3(C)[C@]2(C(=O)CO)O1 (some centres undefined) [BUDESONIDE]			Not Active	Not Active	Not Active	Not Active	Not Active	Not Active	Not Active	Not Active						
Cc1cc(C2CCCCC2)n(O)c(=O)c1 [CICLOPIROX]			Not Active	Not Active	Not Active	Not Active	Not Active	Not Active	Not Active	Not Active						
Cc1c(C)c2c(c(C)c1O)CC[C@@](C)(CCC[C@H](C)CCC[C@H](C)CCCC(C)C)O2 [ALPHA-TOCOPHEROL]			Not Active	Not Active	Not Active	Not Active	Not Active	Not Active	Not Active	Not Active						
Cc1c2oc3c(C)ccc(C(=O)N[C@@H]4C(=O)N[C@H](C(C)C)C(=O)N5CCC[C@H]5C(=O)N(C)CC(=O)N(C)[C@@H](C(C)C)C(=O)O[C@@H]4C)c3nc-2c(C(=O)N[C@@H]2C(=O)N[C@H](C(C)C)C(=O)N3CCC[C@H]3C(=O)N(C)CC(=O)N(C)[C@@H](C(C)C)C(=O)O[C@@H]2C)c(N)c1=O [DACTINOMYCIN] (I: T[dV]P[Sar][NMeV] / II: T[dV]P[Sar][NMeV]; ester I:1-I:C, II:1-II:C; linker I:N-II:N via Actinocin(1to9))			Not Active	Not Active	Not Active	Not Active	Not Active	Not Active	Not Active	Not Active						
C[C@H](CCC(=O)O)[C@H]1CC[C@H]2[C@@H]3[C@H](O)C[C@@H]4C[C@H](O)CC[C@]4(C)[C@H]3C[C@H](O)[C@]12C [CHOLIC ACID]			Not Active	Not Active	Not Active	Not Active	Not Active	Not Active	Not Active	Not Active						
CN(Cc1ccc(C(C)(C)C)cc1)Cc1cccc2ccccc12 [BUTENAFINE]			Not Active	Not Active	Not Active	Not Active		Not Active	Not Active	Not Active	3.95	1.66				
C[C@H]1O[C@@H](O[C@H]2[C@@H](O)C[C@H](O[C@H]3[C@@H](O)C[C@H](O[C@H]4CC[C@@]5(C)[C@H](CC[C@@H]6[C@@H]5C[C@@H](O)[C@]5(C)[C@@H](C7=CC(=O)OC7)CC[C@]65O)C4)O[C@@H]3C)O[C@@H]2C)C[C@H](O)[C@@H]1O [DIGOXIN]			Not Active	Not Active	Not Active	Not Active	Not Active	Not Active	Not Active	Not Active						
CCCCc1nc(Cl)c(CO)n1Cc1ccc(-c2ccccc2-c2nnn[nH]2)cc1 [LOSARTAN]			Not Active	Not Active	Not Active	Not Active	Not Active	Not Active	Not Active	Not Active						
CNCCc1ccccn1 [BETAHISTINE]			Not Active	Not Active	Not Active	Not Active	Not Active	Not Active	Not Active	Not Active						
O=C(O)CCCc1ccc(N(CCCl)CCCl)cc1 [CHLORAMBUCIL]			Not Active	Not Active	Not Active	Not Active	Not Active	Not Active	Not Active	Not Active						
NC(=O)N1c2ccccc2CCc2ccccc21			Not Active	Not Active	Not Active	Not Active	Not Active	Not Active	Not Active	Not Active						
NCCCCCC(=O)O [AMINOCAPROIC ACID]			Not Active	Not Active	Not Active	Not Active	Not Active	Not Active	Not Active	Not Active						
C=C(C)C1(O)OC(=O)C=C1OC (centres undefined) [PENICILLIC ACID]			Not Active	Not Active	Not Active	Not Active	Not Active	Not Active	Not Active	Not Active						
CC1(C)O[C@@H]2C[C@H]3[C@@H]4CCC5=CC(=O)CC[C@]5(C)[C@@]4(F)[C@@H](O)C[C@]3(C)[C@]2(C(=O)CCl)O1 [HALCINONIDE]			Not Active	Not Active	Not Active	Not Active	Not Active	Not Active	Not Active	Not Active						
LIPOPOLYSACCHARIDE E. COLI O55:B5			Not Active	Not Active	Not Active	Not Active	Not Active	Not Active	Not Active	Not Active			Not Active	Not Active	Not Active	Not Active
COc1cc2c3cc1Oc1cc(ccc1O)C[C@@H]1c4c(cc(OC)c(O)c4Oc4ccc(cc4)C[C@@H]3N(C)CC2)CC[N+]1(C)C.[Cl-]			Not Active	Not Active	Not Active	Not Active	Not Active	Not Active	Not Active	Not Active						
Cc1cc(C(C#N)c2ccc(Cl)cc2)c(Cl)cc1NC(=O)c1cc(I)cc(I)c1O (centres undefined) [CLOSANTEL]			Not Active	Not Active	Not Active	Not Active	Not Active	Not Active	Not Active	Not Active						
CC(NC(C)(C)C)C(=O)c1cccc(Cl)c1 (centres undefined) [BUPROPION]			Not Active	Not Active	Not Active	Not Active	Not Active	Not Active	Not Active	Not Active						
